# Laboratory results: PubChem BioAssay AID1963871 (Molecular Pharmacology Branch, DTP, NCI, 2024)
# Test system: KRAS-mutant PDC multicell tumor spheroid viability
# Experiment: Anticancer human tumor 521955-158-R2-J5-PDC patient-derived pancreatic carcinoma cell line growth inhibition [KRAS2]
# Conditions: for viability, T/C: stronger effect = lower value
# Outline: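 Combination screen of spheroid viability in tumor-cell co-cultures with endothelial (HUVEC) and mesenchymal stem cell stroma. Each agent was tested in half-log dilutions, topping at clinical Cmax or at 10 microM without a known Cmax.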
# [1] = curve of first compound, second compound 0.1 µM
# [2] = curve of first compound, second compound 0.316 µM
# [3] = curve of first compound, second compound 1 µM
# [4] = curve of first compound, second compound 3.16 µM
# [5] = second compound 0.1 µM, first compound 0.0316 µM
# [6] = second compound 0.1 µM, first compound 0.1 µM
# [7] = second compound 0.1 µM, first compound 0.316 µM
# [8] = second compound 0.1 µM, first compound 1 µM
# [9] = second compound 0.1 µM, first compound 3.16 µM
# [10] = second compound 0.1 µM, first compound 10 µM
# [11] = second compound 0.316 µM, first compound 0.0316 µM
# [12] = second compound 0.316 µM, first compound 0.1 µM
# [13] = second compound 0.316 µM, first compound 0.316 µM
# [14] = second compound 0.316 µM, first compound 1 µM
# [15] = second compound 0.316 µM, first compound 3.16 µM
# [16] = second compound 0.316 µM, first compound 10 µM
# [17] = second compound 1 µM, first compound 0.0316 µM
# [18] = second compound 1 µM, first compound 0.1 µM
# [19] = second compound 1 µM, first compound 0.316 µM
# [20] = second compound 1 µM, first compound 1 µM
# [21] = second compound 1 µM, first compound 3.16 µM
# [22] = second compound 1 µM, first compound 10 µM
# [23] = second compound 3.16 µM, first compound 0.0316 µM
# [24] = second compound 3.16 µM, first compound 0.1 µM
# [25] = second compound 3.16 µM, first compound 0.316 µM
# [26] = second compound 3.16 µM, first compound 1 µM
# [27] = second compound 3.16 µM, first compound 3.16 µM
# [28] = second compound 3.16 µM, first compound 10 µM
# [29] = curve of first compound, second compound 10 µM
# [30] = second compound 10 µM, first compound 0.0316 µM
# [31] = second compound 10 µM, first compound 0.1 µM
# [32] = second compound 10 µM, first compound 0.316 µM
# [33] = second compound 10 µM, first compound 1 µM
# [34] = second compound 10 µM, first compound 3.16 µM
# [35] = second compound 10 µM, first compound 10 µM
# 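Further: viability read after seven days of drug exposure.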
Compound,IC50 [1],IC50 [2],IC50 [3],IC50 [4],"viability, T/C [5]","viability, T/C [6]","viability, T/C [7]","viability, T/C [8]","viability, T/C [9]","viability, T/C [10]","viability, T/C [11]","viability, T/C [12]","viability, T/C [13]","viability, T/C [14]","viability, T/C [15]","viability, T/C [16]","viability, T/C [17]","viability, T/C [18]","viability, T/C [19]","viability, T/C [20]",other results
CC1(C)CCC(CN2CCN(c3ccc(C(=O)NS(=O)(=O)c4ccc(NCC5CCOCC5)c([N+](=O)[O-])c4)c(Oc4cnc5[nH]ccc5c4)c3)CC2)=C(c2ccc(Cl)cc2)C1 + C=CC(=O)N1CCN(c2nc(OCC3CCCN3C)nc3c2CCN(c2cccc4cccc(C)c24)C3)CC1CC#N,4630 nM,2010 nM,1680 nM,< 31.6 nM,97.7%,100%,99.9%,104%,72.9%,4.13%,88.5%,97.4%,100%,103%,19.3%,4.17%,85.6%,89.5%,84.6%,81.7%,"IC50 (curve of first compound, second compound 0.0316 µM): 4890 nM; viability, T/C (second compound 0.0316 µM, first compound 0.0316 µM): 108%; viability, T/C (second compound 0.0316 µM, first compound 0.1 µM): 101%; viability, T/C (second compound 0.0316 µM, first compound 0.316 µM): 105%; viability, T/C (second compound 0.0316 µM, first compound 1 µM): 111%; viability, T/C (second compound 0.0316 µM, first compound 3.16 µM): 77.7%; viability, T/C (second compound 0.0316 µM, first compound 10 µM): 4.79%; viability, T/C [21]: 11.3%; viability, T/C [22]: 1.35%; viability, T/C [23]: 10.6%; viability, T/C [24]: 8.43%; viability, T/C [25]: 5.9%; viability, T/C [26]: 1.39%; viability, T/C [27]: 0.22%; viability, T/C [28]: 0.27%"
COC(=O)c1ccc2c(C(=Nc3ccc(N(C)C(=O)CN4CCN(C)CC4)cc3)c3ccccc3)c(O)[nH]c2c1 + C=CC(=O)N1CCN(c2nc(=O)n(-c3c(C)ccnc3C(C)C)c3nc(-c4c(O)cccc4F)c(F)cc23)C(C)C1,1720 nM,1540 nM,727 nM,1010 nM,89.6%,88.4%,87%,75.9%,21%,0.16%,102%,88.1%,89.9%,74.2%,10.3%,0.14%,113%,96.4%,77%,43.5%,"IC50 [29]: 1260 nM; viability, T/C [21]: 4.15%; viability, T/C [22]: 0.16%; viability, T/C [23]: 86%; viability, T/C [24]: 82.1%; viability, T/C [25]: 67.9%; viability, T/C [26]: 53.4%; viability, T/C [27]: 2.33%; viability, T/C [28]: 0.14%; viability, T/C [30]: 66.5%; viability, T/C [31]: 71.5%; viability, T/C [32]: 56.6%; viability, T/C [33]: 61.2%; viability, T/C [34]: 4.87%; viability, T/C [35]: 0.22%"
CC1(C)CCC(CN2CCN(c3ccc(C(=O)NS(=O)(=O)c4ccc(NCC5CCOCC5)c([N+](=O)[O-])c4)c(Oc4cnc5[nH]ccc5c4)c3)CC2)=C(c2ccc(Cl)cc2)C1,,,,,,,,,,,,,,,,,,,,,"viability, T/C (compound 0.0316 µM): 99.7% [middle of 5 runs]; viability, T/C (compound 0.1 µM): 104% [middle of 5 runs]; viability, T/C (compound 0.316 µM): 105% [middle of 5 runs]; viability, T/C (compound 1 µM): 111% [middle of 5 runs]; IC50 (curve of compound): 6.08 µM [middle of 5 runs]"
CC(C)NCC(C(=O)N1CCN(c2ncnc3c2C(C)CC3O)CC1)c1ccc(Cl)cc1 (centres undefined) + C=CC(=O)N1CCN(c2nc(=O)n(-c3c(C)ccnc3C(C)C)c3nc(-c4c(O)cccc4F)c(F)cc23)C(C)C1,> 10000 nM,> 10000 nM,> 10000 nM,293 nM,102%,105%,77.7%,78%,76.5%,67%,116%,100%,74.4%,64.4%,65.3%,58.6%,106%,94.9%,64.1%,54.5%,"IC50 [29]: 134 nM; viability, T/C [21]: 58.2%; viability, T/C [22]: 53.2%; viability, T/C [23]: 94.8%; viability, T/C [24]: 82.8%; viability, T/C [25]: 46.5%; viability, T/C [26]: 43.2%; viability, T/C [28]: 31%; viability, T/C [30]: 69.5%; viability, T/C [31]: 56.2%; viability, T/C [32]: 32.1%; viability, T/C [33]: 19.7%; viability, T/C [34]: 19.2%; viability, T/C [35]: 13.2%"
